Laboratory results published in publication PMC7359024, “Synthesis, Structure–Activity Relationship, and Mechanistic Studies of Aminoquinazolinones Displaying Antimycobacterial Activity” (ACS Infectious Diseases, 2020).
In brackets after ≈: the same amount, converted by molar mass. Read-outs that look alike come from different tables or passages of the source.

Assays:
[1] = type: in vitro ADME; details: for Metabolic Stability H (% Rem.): human liver microsomes; for Metabolic Stability M (% Rem.): mouse liver microsomes; for Metabolic Stability R (% Rem.): rat liver microsomes
Experimental: 3.2. Microsomal stability
The metabolic stability assay was performed in duplicate in a 96-well micro titre plate. The test compounds (0.1 μM) were incubated individually in mouse, rat and pooled human liver microsomes ((final protein concentration of 0.4 mg/mL; XenoTech, Lenexa, KS ), suspended in 0.1M phosphate buffer (pH 7.4) at 37 °C for predetermined time points, in the presence and absence of the cofactor NADPH (1 mM). Reactions were quenched by adding ice cold acetonitrile containing internal standard (carbamazepine, 0.0236 µg/mL). T he samples were centrifuged and test compound in the supernatant were analysed by means of LC -MS/MS (Agilent Rapid Resolution HPLC, AB SCIEX 4500 MS ). The relative loss of parent compound over time was monitored and plots (concentration vs. time) were prepared per compound to determine the first order rate constant for compound depletion. This was in turn used to calculate half-life, in vitro intrinsic clearance and in vivo hepatic extraction ratio. Metabolite searches were not conducted during the metabolic stability assay. 5

physchem = type: physicochemical; details: 25 °C, pH 7.4, aqueous buffer, kinetic solubility, pH 7.4, HPLC method
Experimental: The kinetic solubility assay was performed using a miniaturised shake flask method. 10 mM stock solutions of each of the test compounds were used to prepare calibration standards (10-220μM) in DMSO. The same 10mM stock solutions were accurately dispensed in duplicate into 96-well plates and the DMSO dried down (MiVac GeneVac, 90 min, 37 °C). Thereafter, the samples were reconstituted (200 µM) in phosphate buffered saline (pH 7.4) and shaken (20 hours, 25 °C). The solutions were filtered and analysed by means of HPLC -DAD (Agilent 1200 Rapid Resolution HPLC with a diode array detector). […]

Mtb H37Rv strain = assay: MIC90 determination in GASTE-Fe media (broth microdilution); type: cell-based, Mycobacterium tuberculosis; details: Mtb H37Rv, replicating conditions, GASTE-Fe media, read 14 days after incubation, read-out: MIC90 GASTE-Fe
in vitro = details: Chinese hamster
in vivo = assay: in vivo; parameters: species or system C57/BL6 mice; details: for bioavailability: oral 20 mg/kg vs iv 5 mg/kg
Experimental: In vivo PK studies were performed on compound 1 (sulfone) and compound 2 (sulfoxide) (Table 3). All studies and procedures were conducted with prior approval of the animal ethics committee of the University of Cape Town (approval numbers 013/028 and 014/028) in accordance with the South African National Standard (SANS 10386:008) for the Care and Use of Animals for Scientific Purposes and guidelines from the Department of Health. […]
the South African National Standard (SANS 10386:008) for the Care and Use of Animals for Scientific Purposes,6 and guidelines from the Department of Health.7
The pharmacokinetic parameters of the compounds were determined by dosing the compound to C57/BL6 mice through oral (n = 3 mice) and intravenous (n = 3 mice) administration. For oral administration, the compounds were formulated in 0.5% hydroxypropylmethyl cellulose (HPMC) in Phosphate buffered saline pH 7.4. The intravenous doses were administered in dimethylacetamide-polyethylene glycol 400-polypropylene glycol (DMA-PEG400-PPG) (10:30:60) Blood samples were collected via tail bleeding at predetermined time points and stored at -80°C until liquid chromatography-tandem mass spectrometry (LC-MS/MS) analysis.
The whole-blood concentrations of the compounds were determined using a quantitative LC- […]
method, using ice -cold acetonitrile.
After centrifugation, the supernatant was transferred to 96 -well plates for analysis. LC -MS/MS was carried out on an AB Sciex 400 0 QTrap coupled to an Agilent 1200 high -performance liquid chromatograph (HPLC). Separation was achieved on a Kinetex PFP column column, using 0.1% formic acid in water as the aqueous mobile phase and 0.1% formic acid in acetonitrile as the organic mobile phase. The analytical limit of quantitation (LOQ) was 1 ng/ml. LC-MS/MS method accuracy and precision were 15% (nom) for the standards and […]
Concentration-versus-time data were used to derive the PK parameters using noncompartmental analys is on PK Solutions 2.0 (Summit Research Services, Montrose, CO,

[2] = Mycobacterium tuberculosis, H37RV, 336 h

## Nc1nc2ccc(-c3cccc(C(=O)NCCN4CCOCC4)c3)cc2c(=O)n1-c1ccc(C(F)(F)F)cc1 [compound 15, 3-(2-amino-4-oxo-3-(4-(trifluoromethyl)phenyl)-3,4-dihydroquinazolin-6-yl)-N-(2-morpholinoethyl)benzamide]
[1]
  Metabolic Stability H (% Rem.): 51 % Rem.
  Metabolic Stability M (% Rem.): 59 % Rem.
  Metabolic Stability R (% Rem.): 62 % Rem.
physchem
  solubility: < 5 µM
Mtb H37Rv strain; [2]
  MIC90: 1.45 µM (≈ 0.779 µg/mL)
In vitro
  IC50: 8.77 µM

## CN(C)C(=O)c1cccc(-c2ccc3nc(N)n(-c4ccc(C(F)(F)F)cc4)c(=O)c3c2)c1 [compound 10]
[1]
  Metabolic Stability H (% Rem.): 85 % Rem.
  Metabolic Stability M (% Rem.): 89 % Rem.
  Metabolic Stability R (% Rem.): 86 % Rem.
physchem
  solubility: 46 µM (≈ 20.8 µg/mL)
Mtb H37Rv strain; [2]
  MIC90: 2.15 µM (≈ 0.973 µg/mL)
In vitro
  IC50: 0.64 µM

## CN(C)c1cccc(-c2ccc3nc(N)n(-c4ccc(C(F)(F)F)cc4)c(=O)c3c2)c1 [compound 27]
[1]
  Metabolic Stability H (% Rem.): 37/-/- % Rem.
physchem
  solubility: 20 µM (≈ 8.49 µg/mL)
Mtb H37Rv strain; [2]
  MIC90: 2.5 µM (≈ 1.06 µg/mL)
In vitro
  IC50: > 100 µM

## Nc1nc2ccc(-c3cccc(C(=O)N4CCSCC4)c3)cc2c(=O)n1-c1ccc(C(F)(F)F)cc1 [compound 18, 2-Amino-6-(3-(thiomorpholine-4-carbonyl)phenyl)-3-(4-(trifluoromethyl)phenyl)quinazolin-4(3H)-one]
[1]
  Metabolic Stability H (% Rem.): 8 % Rem.
  Metabolic Stability M (% Rem.): 22 % Rem.
  Metabolic Stability R (% Rem.): 23 % Rem.
physchem
  solubility: 46 µM (≈ 23.5 µg/mL)
Mtb H37Rv strain; [2]
  MIC90: 0.656 µM (≈ 0.335 µg/mL)
In vitro
  IC50: > 50 µM

## Nc1nc2ccc(-c3cccc(C(=O)N4CCOCC4)c3)cc2c(=O)n1-c1ccc(C(F)(F)F)cc1 [compound 16, 2-Amino-6-(3-(morpholine-4-carbonyl)phenyl)-3-(4-(trifluoromethyl)phenyl)quinazolin-4(3H)-one]
[1]
  Metabolic Stability H (% Rem.): 71 % Rem.
  Metabolic Stability M (% Rem.): 78 % Rem.
  Metabolic Stability R (% Rem.): 77 % Rem.
physchem
  solubility: 56 µM (≈ 27.7 µg/mL)
Mtb H37Rv strain; [2]
  MIC90: 4.93 µM (≈ 2.44 µg/mL)
In vitro
  IC50: > 50 µM

## C[S+]([O-])c1cccc(-c2ccc3c(=O)n(-c4ccc(C(F)(F)F)cc4)c(N)nc3c2)c1 (stereo not shown) [compound 31]
[1]
  Metabolic Stability H (% Rem.): 98 % Rem.
  Metabolic Stability M (% Rem.): 78 % Rem.
  Metabolic Stability R (% Rem.): 73 % Rem.
physchem
  solubility: < 5 µM
Mtb H37Rv strain; [2]
  MIC90: 1.32 µM (≈ 0.585 µg/mL)
In vitro
  IC50: > 50 µM

## Nc1nc2ccc(-c3cccc(C(F)(F)F)c3)cc2c(=O)n1-c1ccc(C(F)(F)F)cc1 [compound 28]
[1]
  Metabolic Stability H (% Rem.): 88/-/- % Rem.
physchem
  solubility: 40 µM (≈ 18 µg/mL)
Mtb H37Rv strain; [2]
  MIC90: 0.75 µM (≈ 0.337 µg/mL)
In vitro
  IC50: > 100 µM

## CS(=O)(=O)c1cccc(-c2ccc3nc(N)n(-c4ccc(C(F)(F)F)cc4)c(=O)c3c2)c1 [compound 1, 2-Amino-6-(3-(methylsulfonyl)phenyl)-3-(4-(trifluoromethyl)phenyl)quinazolin-4(3H)-one]
[1]
  Metabolic Stability H (% Rem.): 97 % Rem.
  Metabolic Stability M (% Rem.): 92 % Rem.
  Metabolic Stability R (% Rem.): 100 % Rem.
In vivo; 1 as metabolite of 2, mouse, oral 20 mg/kg of compound 2
  AUC0–∞: 18430 min·μmol·L^–1
In vivo; C57/BL6, in vivo, mouse, iv 5 mg/kg
  Vd: 0.81 L/kg
In vivo; C57/BL6, in vivo, mouse, iv 5 mg/kg, read-out: CLtotal
  clearance: 1.3 mL/min/kg
In vivo; C57/BL6, in vivo, mouse, iv 5 mg/kg, read-out: apparent t1/2 (converted)
  half-life: 7.3 h
In vivo; C57/BL6, in vivo, mouse, oral 20 mg/kg
  Tmax: 3 h
In vivo; C57/BL6, in vivo, mouse, oral 20 mg/kg, whole blood
  Cmax: 5.98 µM
In vivo; C57/BL6, mouse, in vivo, read-out: bioavailability
  bioavailability: 18%
In vivo; mouse, iv 5 mg/kg
  AUC0–∞: 8589 min·μmol·L^–1
In vivo; mouse, oral 20 mg/kg
  AUC0–∞: 7249 min·μmol·L^–1
In vivo; mouse
  bioavailability: 18.4%
physchem
  solubility: < 5 µM
Mtb H37Rv strain
  MIC90: <0.244 µM
Mtb H37Rv strain; [2]
  MIC90: < 0.244 µM
In vitro
  IC50: > 100 µM

## Nc1nc2cc(-c3cccc(C(F)(F)F)c3)ccc2c(=O)n1-c1ccc(C(F)(F)F)cc1 [compound 32]
[1]
  Metabolic Stability H (% Rem.): 95 % Rem.
  Metabolic Stability M (% Rem.): 82 % Rem.
  Metabolic Stability R (% Rem.): 89 % Rem.
physchem
  solubility: < 5 µM
Mtb H37Rv strain; [2]
  MIC90: 0.8 µM (≈ 0.359 µg/mL)
In vitro
  IC50: > 50 µM

## CNc1nc2ccc(-c3cccc([S+](C)[O-])c3)cc2c(=O)n1-c1ccc(C(F)(F)F)cc1 (stereo not shown) [compound 40, 2-(Methylamino)-6-(3-(methylsulfinyl)phenyl)-3-(4-(trifluoromethyl)phenyl)quinazolin-4(3H)-one]
[1]
  Metabolic Stability H (% Rem.): 89 % Rem.
  Metabolic Stability M (% Rem.): 87 % Rem.
  Metabolic Stability R (% Rem.): 90 % Rem.
physchem
  solubility: 64 µM (≈ 29.3 µg/mL)
Mtb H37Rv strain; [2]
  MIC90: 1.4 µM (≈ 0.64 µg/mL)
In vitro
  IC50: > 50 µM
